In article PMC6842059 (ChemMedChem, 2019):

How the values were obtained:
in vitro = settings: human

| Compound | selectivity index (CC50/IC50) (MT-2 cells) | CC50 (in vitro) |
| --- | --- | --- |
| CC(C)CN(C[C@@H](O)[C@H](Cc1ccccc1)NC(=O)O[C@H]1CO[C@H]2OCC[C@H]21)S(=O)(=O)c1ccc(B(O)O)cc1 [Inhibitor 5, (4-(N-((2R,3S)-3-(((((3R,3aS,6aR)-hexahydrofuro[2,3-b]furan-3-yl)oxy)carbonyl)amino)-2-hydroxy-4-phenylbutyl)-N-isobutylsulfamoyl)phenyl)boronic acid] | > 2,040 | > 100 µM |
| CC(C)CN(C[C@@H](O)[C@H](Cc1ccccc1)NC(=O)O[C@H]1C2CO[C@H]3OC[C@@H]1C3C2)S(=O)(=O)c1ccc(B(O)O)cc1 (stereo partly drawn) [Inhibitor 6, (4-(N-((2R,3S)-3-(((((3S,7aS,8S)-Hexahydro-4H-3,5-methanofuro[2,3-b]pyran-8-yl)oxy)carbonyl)amino)-2-hydroxy-4-phenylbutyl)-N-isobutylsulfamoyl)phenyl)boronic acid] | > 2,650 | > 100 µM |
